This test deals with TNBS-induced inflammatory bowel disease rat model. Kind of test: Oral efficacy in TNBS-induced inflammatory bowel disease rat model. Format: in vivo, Sprague Dawley rats. Here is the method:
Sprague Dawley rats aged 7-8 weeks were purchased from OrientBio (Korea), stabilized with general solid feed for 3 days, and then used in this experiment. Feed and water were freely supplied during the experiment period, and the temperature of the breeding room was maintained at 25±1° C. and the relative humidity at 50±10%. Lighting management was controlled in a 12-hour light-dark cycle by an automatic lighting controller.
After anesthetizing rats that had been fasted for 24 hours with diethyl ether, 0.8 mL of 5% TNBS diluted with 50v/v % ethanol was slowly injected into the lumen of the colon using a 1 mL syringe connected to a polyethylene catheter, and then, the rats were left standing for 60 seconds in an inverted position in order to prevent 5% TNBS from leaking into the anus. For the control group, only vehicle [50v/v % ethanol] was injected in the same manner as in the other groups (Thapa et al., 2008).
In order to investigate the effect of the drug, the drug was administered at a constant time every day for 5 days from the day after the TNBS treatment.
Changes in body weight of each rat were observed from the fasting stage to the TNBS administration and drug administration process using a digital mass meter.
The colon of the rat was extracted, and the tissue 5-6 cm away from the anus was cut into a length of 1 cm, and the weight of the tissue was measured.
The weighed rat tissues were fixed with 4% paraformaldehyde solution, and then transferred to 30% sucrose solution. When the tissues subside, they were taken out and cut into […] thick using a cryomicrotome (Microm HM 450, Thermo Fisher Scientific, Germany) and stored in a cryopreservation solution. After washing the tissue section with KPBS, the tissue section was attached to a slide glass, dried, and then stained with hematoxylin & Eosin and observed under a microscope.

Setting [1] is: 0.3 mg/kg, dose-dependence test (Table 7).
The mark [2] stands for this setting: 1 mg/kg, dose-dependence test (Table 7).
[3] abbreviates: 3 mg/kg, dose-dependence test (Table 7).
Setting [4] is: 10 mg/kg, dose-dependence test (Table 7).
The mark [5] stands for this setting: oral 1 mg/kg, 5 days, fixed-dose test (Table 6).

With `Cc1ccc2[nH]c(C(=O)Nc3nc(C)c(O)c(C)c3C)cc2c1` [Compound X-09, N-(5-hydroxy-3,4,6-trimethylpyridin-2-yl)-5-methyl-1H-indole-2-carboxamide], the “Body weight recovery rate (%)” value runs as follows: under setting [1], 17.2%; under setting [2], 69.3%; under setting [3], 74.6%; under setting [4], 80.8%; under setting [5], 72.7%. The “Intestinal weight recovery rate (%)” value is, setting by setting: under setting [1], 47.0%; under setting [2], 85.2%; under setting [3], 91.7%; under setting [4], 98.9%; under setting [5], 94.0%. In addition, the “Mucosal damage recovery of rat colon (hematoxylin-eosin score)” value (X-09 dose range, FIG. 1) was “dose-dependent mucosal damage recovery activity”. Also, the “Morphological observation of colon (visual symptoms, adhesions, congestion)” value (after 5 days of drug administration, sulfasalazine 300 mg/kg, X-09 0.3-10 mg/kg) was “dose-dependent therapeutic activity for enteritis”.

The values are drawn from patent US12398117B2, “Heteroarylamidopyridinol derivative and pharmaceutical composition comprising same as active ingredient for prevention or treatment of autoimmune disease” (INNOVO THERAPEUTICS INC., priority 2019, dated 2025).
